Reference: patent US20120178915A1, “PYRIMIDINE DERIVATIVES AND ANALOGS, PREPARATION METHOD AND USE THEREOF” (priority 2009, published 2012)
Converted amounts (≈) assume the structure as drawn. Where two headings read alike, the source gives them in different places.

Legend:
[1] = tested on: Bacillus cereus 2; assay: microbe, parasite or virus in culture; assay type: cell-based; conditions: 37° C., 24 h, read-out: Minimum Inhibitory Concentration, MIC
[2] = tested on: Bacillus cereus 246; assay: microbe, parasite or virus in culture; assay type: cell-based; conditions: 37° C., 24 h, read-out: Minimum Inhibitory Concentration, MIC
[3] = tested on: Bacillus subtilis 82; assay: microbe, parasite or virus in culture; assay type: cell-based; conditions: 37° C., 24 h, read-out: Minimum Inhibitory Concentration, MIC
[4] = tested on: Bacillus subtilis 168; assay: microbe, parasite or virus in culture; assay type: cell-based; conditions: 37° C., 24 h, read-out: Minimum Inhibitory Concentration, MIC
[5] = tested on: Enterococcus faecalis 29212; assay: microbe, parasite or virus in culture; assay type: cell-based; conditions: 37° C., 24 h, read-out: Minimum Inhibitory Concentration, MIC
[6] = tested on: Enterococcus faecalis 51299; assay: microbe, parasite or virus in culture; assay type: cell-based; conditions: Enterococcus faecalis, 51299, 24 h, read-out: Minimum Inhibitory Concentration, MIC
[7] = tested on: Enterococcus faecalis 19433; assay: microbe, parasite or virus in culture; assay type: cell-based; conditions: 37° C., 24 h, read-out: Minimum Inhibitory Concentration, MIC
[8] = tested on: Enterococcus faecalis F2518 (VRE); assay: microbe, parasite or virus in culture; assay type: cell-based; conditions: 24 h, read-out: Minimum Inhibitory Concentration, MIC
[9] = tested on: Enterococcus fecal F631 (VRE); assay: organism not typed; assay type: cell-based; conditions: 24 h, read-out: Minimum Inhibitory Concentration, MIC
[10] = tested on: Enterococcus faecalis 1513 (VRE); assay: microbe, parasite or virus in culture; assay type: cell-based; conditions: 24 h, read-out: Minimum Inhibitory Concentration, MIC
[11] = tested on: Enterococcus faecalis 583 (VRE); assay: microbe, parasite or virus in culture; assay type: cell-based; conditions: 24 h, read-out: Minimum Inhibitory Concentration, MIC
[12] = tested on: Staphylococcus aureus 29231; assay: microbe, parasite or virus in culture; assay type: cell-based; conditions: 37° C., 24 h, read-out: Minimum Inhibitory Concentration, MIC
[13] = tested on: Staphylococcus aureus 43300 (MRSA); assay: microbe, parasite or virus in culture; assay type: cell-based; conditions: 24 h, read-out: Minimum Inhibitory Concentration, MIC
[14] = tested on: Staphylococcus aureus 703 (MRSA); assay: microbe, parasite or virus in culture; assay type: cell-based; conditions: 24 h, read-out: Minimum Inhibitory Concentration, MIC
[15] = tested on: Staphylococcus aureus 704 (MRSA); assay: microbe, parasite or virus in culture; assay type: cell-based; conditions: 24 h, read-out: Minimum Inhibitory Concentration, MIC
[16] = tested on: Staphylococcus aureus 705 (MRSA); assay: microbe, parasite or virus in culture; assay type: cell-based; conditions: 24 h, read-out: Minimum Inhibitory Concentration, MIC
[17] = tested on: Streptococcus pneumoniae 6303 (PRSP); assay: microbe, parasite or virus in culture; assay type: cell-based; conditions: 24 h, read-out: Minimum Inhibitory Concentration, MIC
[18] = tested on: Streptococcus pneumoniae 62; assay: microbe, parasite or virus in culture; assay type: cell-based; conditions: 37° C., 24 h, read-out: Minimum Inhibitory Concentration, MIC
[19] = tested on: Streptococcus pneumoniae 6301; assay: microbe, parasite or virus in culture; assay type: cell-based; conditions: 37° C., 24 h, read-out: Minimum Inhibitory Concentration, MIC
[20] = tested on: Streptococcus pneumoniae M2; assay: microbe, parasite or virus in culture; assay type: cell-based; conditions: 37° C., 24 h, read-out: Minimum Inhibitory Concentration, MIC
[21] = tested on: Pyogenic Streptococcus; assay: microbe, parasite or virus in culture; assay type: cell-based; conditions: 37° C., 24 h, read-out: Minimum Inhibitory Concentration, MIC
[22] = tested on: Streptococcus agalactiae B; assay: microbe, parasite or virus in culture; assay type: cell-based; conditions: 37° C., 24 h, read-out: Minimum Inhibitory Concentration, MIC
[23] = tested on: green Streptococcus 1009; assay: microbe, parasite or virus in culture; assay type: cell-based; conditions: 37° C., 24 h, read-out: Minimum Inhibitory Concentration, MIC
[24] = tested on: Streptococcus bovis 10035; assay: microbe, parasite or virus in culture; assay type: cell-based; conditions: Streptococcus equinus, 37° C., 24 h, read-out: Minimum Inhibitory Concentration, MIC
[25] = tested on: Streptococcus 10342; assay: MIC broth microdilution; assay type: cell-based; conditions: 37° C., 24 h, read-out: Minimum Inhibitory Concentration, MIC
[26] = tested on: Streptococcus pneumoniae 10351; assay: microbe, parasite or virus in culture; assay type: cell-based; conditions: 37° C., 24 h, read-out: Minimum Inhibitory Concentration, MIC
[27] = tested on: Bacillus anthracis 1; assay: microbe, parasite or virus in culture; assay type: cell-based; conditions: Bacillus anthracis, 1, 24 h, read-out: Minimum Inhibitory Concentration, MIC
[28] = tested on: Corynebacterium diphtheriae; assay: microbe, parasite or virus in culture; assay type: cell-based; conditions: 37° C., 24 h, read-out: Minimum Inhibitory Concentration, MIC
[29] = tested on: Clostridium tetani; assay: microbe, parasite or virus in culture; assay type: cell-based; conditions: 24 h
[30] = tested on: Clostridium perfringens; assay: microbe, parasite or virus in culture; assay type: cell-based; conditions: 24 h, read-out: Minimum Inhibitory Concentration, MIC
[31] = tested on: Oral candidiasis; assay: MIC broth microdilution; assay type: cell-based; conditions: Microorganism 32, Oral candidiasis; 37° C., 24 h; read-out: Minimum Inhibitory Concentration, MIC
[32] = MIC broth microdilution; assay type: cell-based; conditions: Microorganism 33, Dermatophytosis; 37° C., 24 h; read-out: Minimum Inhibitory Concentration, MIC
[33] = tested on: MRSA 2152; assay: Antibacterial studies in vivo, survival of mice infected with MRSA 2152; conditions: dose mg/kg: ciprofloxacin 20, 3: 30, 7: 40, 21: 50, 33: 25, 70: 70
[34] = read-out: Minimum Inhibitory Concentration, MIC, Microorganism 29, Clostridium tetani, 37° C.
[35] = read-out: Minimum Inhibitory Concentration, MIC, Microorganism 30, Clostridium tetani (second line of that name), 37° C.

Row | Structure (SMILES) | MIC [1] | MIC [2] | MIC [3] | MIC [4] | MIC [5] | MIC [6] | MIC [7] | MIC [8] | MIC [9] | MIC [10] | MIC [11] | MIC [12] | MIC [13] | MIC [14] | MIC [15] | MIC [16] | MIC [17] | MIC [18] | MIC [19] | MIC [20] | also measured
1 | CCc1nn2c(=O)c(C)c(-c3ccc(C(F)(F)F)cc3)[nH]c2c1-c1ccc(Cl)cc1Cl [Compound 23] | 110 µM (≈ 51.5 µg/mL) | 200 µM (≈ 93.4 µg/mL) | 110 µM (≈ 51.4 µg/mL) | 101 µM (≈ 47.2 µg/mL) | 220 µM (≈ 103 µg/mL) | 130 µM (≈ 60.8 µg/mL) | 140 µM (≈ 65.4 µg/mL) | 215 µM (≈ 100 µg/mL) | 80.5 µM (≈ 37.5 µg/mL) | 152 µM (≈ 71 µg/mL) | 132 µM (≈ 61.3 µg/mL) | 282 µM (≈ 131 µg/mL) | 120 µM (≈ 56.2 µg/mL) | 131 µM (≈ 60.9 µg/mL) | 180 µM (≈ 84 µg/mL) | 150 µM (≈ 70 µg/mL) | 231 µM (≈ 108 µg/mL) | 160 µM (≈ 74.8 µg/mL) | 170 µM (≈ 79.4 µg/mL) | 200 µM (≈ 93.4 µg/mL) | MIC [21]: 231 µM (≈ 108 µg/mL); MIC [22]: 200 µM (≈ 93.5 µg/mL); MIC [23]: 210 µM (≈ 98.1 µg/mL); MIC [24]: 153 µM (≈ 71.3 µg/mL); MIC [25]: 123 µM (≈ 57.4 µg/mL); MIC [26]: 155 µM (≈ 72.4 µg/mL); MIC [27]: 166 µM (≈ 77.6 µg/mL); MIC [28]: 162 µM (≈ 75.3 µg/mL); MIC [29, 34]: 80.2 µM (≈ 37.4 µg/mL); MIC [29, 35]: 50.2 µM (≈ 23.4 µg/mL); MIC [30]: 30.6 µM (≈ 14.3 µg/mL); MIC [31]: 122 µM (≈ 56.9 µg/mL); MIC [32]: 56.1 µM (≈ 26.2 µg/mL)
2 | Cc1nn2c(=O)c(C)c(-c3ccc(C#N)cc3)[nH]c2c1-c1ccc(C(F)(F)F)cc1 [Compound 33] | 1.25 µM (≈ 0.51 µg/mL) | 1.25 µM (≈ 0.51 µg/mL) | 0.31 µM (≈ 0.127 µg/mL) | 1.25 µM (≈ 0.51 µg/mL) | 2.5 µM (≈ 1.02 µg/mL) | 2.5 µM (≈ 1.02 µg/mL) | 5 µM (≈ 2.04 µg/mL) | 2.5 µM (≈ 1.02 µg/mL) | 0.63 µM (≈ 0.257 µg/mL) | 5 µM (≈ 2.04 µg/mL) | 2.5 µM (≈ 1.02 µg/mL) | 0.63 µM (≈ 0.257 µg/mL) | 0.55 µM (≈ 0.225 µg/mL) | 0.42 µM (≈ 0.172 µg/mL) | 0.28 µM (≈ 0.114 µg/mL) | 0.33 µM (≈ 0.135 µg/mL) | 1.3 µM (≈ 0.531 µg/mL) | 0.63 µM (≈ 0.257 µg/mL) | 2.5 µM (≈ 1.02 µg/mL) | 1.25 µM (≈ 0.51 µg/mL) | MIC [21]: 0.63 µM (≈ 0.257 µg/mL); MIC [22]: 0.56 µM (≈ 0.229 µg/mL); MIC [23]: 0.3 µM (≈ 0.123 µg/mL); MIC [24]: 10.5 µM (≈ 4.29 µg/mL); MIC [25]: 0.3 µM (≈ 0.123 µg/mL); MIC [26]: 0.04 µM (≈ 0.0163 µg/mL); MIC [27]: 35.6 µM (≈ 14.5 µg/mL); MIC [28]: 80.3 µM (≈ 32.8 µg/mL); MIC [29, 34]: 60.3 µM (≈ 24.6 µg/mL); MIC [29, 35]: 50.6 µM (≈ 20.7 µg/mL); MIC [30]: 31.2 µM (≈ 12.7 µg/mL); MIC [31]: 126 µM (≈ 51.3 µg/mL); MIC [32]: 53.6 µM (≈ 21.9 µg/mL); Survival rate (%) (life prolongation rate) ([33]; (survival days of test group − blank group)/blank group ×100%, MRSA 2152 mice, tail vein): 169.2%; Survival ([33]; mice inoculated intraperitoneally with MRSA 2152, test compound by tail vein, repeated after six hours, saline 1.3 days): 3.5 days
